Data reported in patent US12258338B2, “Modulators of the integrated stress response pathway” (EVOTEC INTERNATIONAL GMBH, priority 2019, dated 2025).
Read-outs that look alike come from different tables or passages of the source.

Test system: ATF4
Test: HEK-ATF4 High Content Imaging assay (prevention of Tunicamycin induced ISR; ATF4 signal ratio between nucleus and cytoplasm)
Type: cell-based
In short: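 Wild-type HEK293 cells in 0.3% FBS medium were co-treated with compounds and Tunicamycin (3.3 μM in prediluted medium, 11-fold over final) for 6 h at 37 °C. Fixed cells were immunostained for ATF4 with Hoechst nuclei; imaging gave nuclear/cytoplasmic ATF4 ratio, with nuclei counts as toxicity control.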

[1] = Homo sapiens, Wild-type HEK293 cells, Tunicamycin induced ISR, 6 h, read-out: IIEK-ATF4 Activity
[2] = Table 24 category key, read-out: HEK-ATF4 Activity*

## O=C(COc1ccc(Cl)c(F)c1)N[C@H]1CC[C@H](c2nnc([C@H]3C[C@@H](OC(F)(F)F)C3)o2)NC1 [Example 50, 2-(4-chloro-3-fluorophenoxy)-N-[(3S,6R)-6-{5-[(1s,3s)-3-(trifluoromethoxy)cyclobutyl]-1,3,4-oxadiazol-2-yl}piperidin-3-yl]acetamide]
[1]
  IC50: 1 to 500 nM
[2]
  IC50: 1 to 500 nM

## O=C(COc1ccc(Cl)c(F)c1)N[C@H]1CC[C@H](c2nnc(COC(F)(F)F)o2)NC1 [Example 61, 2-(4-chloro-3-fluorophenoxy)-N-[(3S,6R)-6-(5-[(trifluoromethoxy)methyl]-1,3,4-oxadiazol-2-yl}piperidin-3-yl]acetamide]
[1]
  IC50: 2000 to 15000 nM
[2]
  IC50: 500 to 2000 nM
